Data set [1] concerns the target T1, QR2 (Homo sapiens, UniProt P16083).
T1 sequence (P16083 1-231): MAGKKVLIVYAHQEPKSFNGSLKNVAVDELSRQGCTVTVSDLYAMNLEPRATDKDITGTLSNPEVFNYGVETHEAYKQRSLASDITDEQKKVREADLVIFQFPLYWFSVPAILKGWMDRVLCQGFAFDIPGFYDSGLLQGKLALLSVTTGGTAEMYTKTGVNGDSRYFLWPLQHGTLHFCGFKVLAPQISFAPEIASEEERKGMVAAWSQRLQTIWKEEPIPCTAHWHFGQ
The data set can be described thus: hQR2 activity assay, enzyme purified from human RBC (Example 1). Format: biochemical. More on the design: Pure hALDH was eluted with 5 mM NADH and pure hQR2 with 5 mM NMeN; tissue Valley Biomedical (blood); host or cells: human red blood cells. The protocol:
ATP-affinity array chromatography. In whole mouse experiments, the animal (except for its tail, feet, skin and intestines) was frozen in liquid N2 and blended in buffer A containing 50 mM Hepes, pH 7.5, 50 mM NaCl, 10 mM MgCl2, 0.1% NONIDET- P40, 1 mM dithiothreitol, 1 μg/ml leupeptin, 100 μg/ml pefabloc and 10 μg/ml aprotinin. Mouse lysate was clarified by centrifugation for 1 hr at 100,000×g. For infected and non-infected RBC's˜1.5×10^9 cells were mixed with an equal volume of 2×buffer A, rocked for 30 min at 4° C., and clarified by centrifugation for 1 hr at 100,000×g. Supernatants were dialyzed overnight against 50 mM Hepes, pH 7.5, 50 mM NaCl, 10 mM MgCl2 and 1 mM dithiothreitol. […] Lysates were centrifuged twice at 125,000×g for 1 hr at 4° C. […] Pure hALDH was eluted with 5 mM NADH and pure hQR2 with 5 mM NMeN. The eluants were dialyzed overnight at 4° C. against 25 mM Tris pH 8.0 and 1 mM DTT. hALDHl was assayed as described in Table 2. Purified hQR2 was assayed at 22° C. in 100 μM N-methyldihydronicotinamide, 30 μM menadione, 0.1% Triton X-100, 50 mM Tris pH 8.5, 100 μM dicoumarol (unless stated otherwise).
For QR2 Kd apparent values determined using the expression [formula]
The Kd was determined as [formula]
Where Ao=rate in the absence of drug; Aapp=rate+drug; [M]=concentration of menadione.

The test system of data set [2] is purine binding proteome (hALDH1 and hQR2). The data set is described as follows: ATP affinity array / ATP-Sepharose displacement elution of RBC purine binding proteome. Details: species or system human. To be noted: for proteins eluted from ATP affinity array (hALDH1 and hQR2): non-infected red cells, drug at [mM]; for proteins eluted from ATP-Sepharose (ALDH1 55 kDa, QR2 26 kDa): RBC extract, 5 mM drug (Example 2). The method, then: ATP-affinity array chromatography. In whole mouse experiments, the animal (except for its tail, feet, skin and intestines) was frozen in liquid N2 and blended in buffer A containing 50 mM Hepes, pH 7.5, 50 mM NaCl, 10 mM MgCl2, 0.1% NONIDET- P40, 1 mM dithiothreitol, 1 μg/ml leupeptin, 100 μg/ml pefabloc and 10 μg/ml aprotinin. Mouse lysate was clarified by centrifugation for 1 hr at 100,000×g. For infected and non-infected RBC's˜1.5×10^9 cells were mixed with an equal volume of 2×buffer A, rocked for 30 min at 4° C., and clarified by centrifugation for 1 hr at 100,000×g. Supernatants were dialyzed overnight against 50 mM Hepes, pH 7.5, 50 mM NaCl, 10 mM MgCl2 and 1 mM dithiothreitol. […] Proteins were resolved by 12% SDS-PAGE and visualized by staining either with Coomassie brilliant Blue R-250 or silver nitrate. Alternatively, proteins were transferred to membrane GeneMate (Kaysville, Utah) in transfer buffer (25 mM Tris, 200 mM glycine, 20% methanol, and 0.01% SDS) for mixed peptide sequencing (Damer et al, J. Biol. Chem. 273:24396 (1998)). hALDH 1 and hQR2 purification and activity assays. Fresh human red blood cells (RBC) were obtained from Valley Biomedical, washed twice with PBS, and lysed in buffer B (0.1% Triton X, 50 mM Tris pH 7.5, 125 mM NaCl, 1 μg/mL aprotonin, 1 μg/mL pepstatin and 10 μg/mL PEFABLOC). Lysates were centrifuged twice at 125,000×g for 1 hr at 4° C. Cleared supernatant was filtered through a […] filter and loaded onto PQ-Sepharose. Pure hALDH was eluted with 5 mM NADH and pure hQR2 with 5 mM NMeN. The eluants were dialyzed overnight at 4° C. against 25 mM Tris pH 8.0 and 1 mM DTT. hALDHl was assayed as described in Table 2. Purified hQR2 was assayed at 22° C. in 100 μM N-methyldihydronicotinamide, 30 μM menadione, 0.1% Triton X-100, 50 mM Tris pH 8.5, 100 μM dicoumarol (unless stated otherwise). N-methyldihydronicotinamide was synthesized (Ortiz-Maldonado et al, Biochemistry 38(50):16636-16647 (1999)) and stored in 100 mM Tris-sulfate pH 8.0.
An ATP affinity array was charged with RBC and P. falciparum (blood stage) infected RBC extract.
chromatography. P. falciparum-infected or non-infected RBCs were lysed by mixing with an equal volume of 2×buffer A and rocking for 30 min at 4° C. 1×buffer A: 50 mM Hepes, pH 7.5, 50 mM NaCl, 10 mM MgCl2, 0.1% NONIDET-P40, 1 mM dithiothreitol, 1 μg/ml leupeptin, 100 μg/ml pefabloc and 1 μg/ml aprotinin. […] Proteins were resolved by 12% SDS-PAGE and visualized by staining with Coomassie brilliant blue R-250 or silver nitrate. Alternatively, proteins were transferred to PVM membrane (Kaysville, Utah) for mixed peptide sequencing (Damer et al, J. Biol. Chem. 273(38):24396-24405 (1998)).
To better understand the mechanism of the quinolines, an attempt was made to identify all quinoline interacting proteins in a cell or animal lysate. To achieve this, a functional proteomics approach was used as outlined in FIG. 7. In this strategy, three different, yet complementary approaches were conducted to identify and validate targets of the quinolines. In step one, termed displacement affinity chromatography, a specific sub-proteome from a cell is captured on an affinity matrix by virtue of its interaction with an immobilized ligand (FIG. 7, Step 1). The sup-proteome is captured after application of saturating amounts of cell lysate and extensive washing of the resin. The compounds of interest (in this case, the quinolines) are then applied to the matrix in parallel and allowed to interact with the bound proteome. […] In the second step, affinity matrices were created by directly linking the quinoline drugs to Sepharose, and after application of cell lysates, all proteins that specifically eluted from these matrices in the presence of drug were identified (FIG. 7 Step 2).

The test system of a further data set is malaria infection. The data set can be described thus: cell-based assays of infection.
The subject of data set [3] is Plasmodium falciparum strain 3D7. The data set is described as follows: P. falciparum growth by (3H)hypoxanthine uptake. It counts as cell-based. The note with it: in vitro. The protocol: Plasmodium cultures. Plasmodium falciparum strain 3D7 was obtained from the MR4/ATCC and grown according to the included specifications. Parasites were harvested by saponin lysis as previously described (Schlichtherle et al (eds) Methods in Malaria Research 77(MR4/ATCC, Manasas, Va. 2000). P. falciparum growth was measured by (^3H)hypoxanthine uptake as previously described (Schlichtherle et al (eds) Methods in Malaria Research 77(MR4/ATCC, Manasas, Va. 2000).
To determine the contribution of QR2 or ALDH1 inhibition to the antimalarial properties of the quinolines, known inhibitors of QR2 or ALDH1 were added to P. falciparum and its growth was measured. Known inhibitors of P. falciparum growth all had IC50 values in agreement with the literature (FIG. 12A). […] The explanation for this finding is likely to be related to the abilities of the drugs to penetrate the plasma membrane or their ability to become concentrated within P. falciparum infected RBCs.

Data set [4] addresses T1, QR2. The data set is described as follows: QR2 activity assay with recombinant QR2 (Example 2). Format: biochemical. Details: GST (N, cleaved yes); made in house; E. coli only by inference. The protocol: Cloning of human QR2. Human QR2 was PCR amplified from human liver cDNA (Clontech) with the following primers: 5′[…]-3′ and 5′-[…]-3′ and cloned into the pGEX-4T-2 GST expression vector (Pharmacia). GST-tagged QR2 was purified and the GST tag removed according to the manufacturers instructions.
(§1) ALDH1, QR2 and QR1 activity assays. […] Reaction products were separated with a gradient of acetonitrile in 10 mM triethylamine acetic acid. […] QR1 IC50 values were calculated using GraphPad Prism.

The target in another data set is QR1 (Oryctolagus cuniculus, UniProt U3KNP2). The data set is described as follows: QR1 activity assay (Example 2). Details: QR1 was purified from rabbit liver as previously described; from tissue; host or cells: rabbit liver. It counts as biochemical, rabbit. The protocol:
Purification of native ALDH1, QR2 and QR1. RBC extract was prepared as described above and applied to PQ-Sepharose equilibrated in buffer A. ALDH1 and QR2 were obtained by eluting the column with 5 mM b-NAD^+ and NMeH respectively.
as §1

Substrate in data set [5]: CC1=CC(=O)c2ccccc2C1=O
The data set can be described thus: hQR2 activity assay, enzyme purified from human RBC (Example 1). Format: biochemical. To be noted: 22.0 °C.

[6] abbreviates: recombinant QR2, 50 μM NMeH, 5-30 μM menadione, read-out: QR2 K1 (μM) ± SEM.
Setting [7] is: QR1 purified from rabbit liver, read-out: QR1 IC50 (μM) ± SEM.

Like-named read-outs stand apart in the source and are kept apart here. Some results are limits rather than exact numbers.

QR1, sequence (U3KNP2 1-274): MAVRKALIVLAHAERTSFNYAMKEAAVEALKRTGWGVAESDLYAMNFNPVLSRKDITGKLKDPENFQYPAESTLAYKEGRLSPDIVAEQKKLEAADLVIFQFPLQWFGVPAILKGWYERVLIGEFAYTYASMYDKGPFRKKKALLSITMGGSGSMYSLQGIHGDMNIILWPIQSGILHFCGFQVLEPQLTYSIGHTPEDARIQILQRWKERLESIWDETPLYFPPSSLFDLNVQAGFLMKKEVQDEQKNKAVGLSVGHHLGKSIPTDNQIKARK

As to `Cc1cc(N)c2ccccc2n1` [4AQ, 4 amino quinaldine], on QR2 [1] (purified hQR2 from human RBC, menadione substrate, read-out: Kd(app)), the Kd was determined as 0.81 µM. For the same molecule, the “proteins eluted from ATP affinity array (hALDH1 and hQR2)” value (shortened to “proteins eluted from ATP affinity array”) in data set [2] is recorded as “selectively eluted two proteins”.

As a reminder, the IC50 is the concentration at which inhibition is half-maximal. For the molecule `CCN(CC)c1ccc(C=O)cc1` [DEAB, diethylaminobenzaldehyde], the “antimalarial activity” value in the data set with malaria infection was “have antimalarial activity”. Besides, in data set [3], the IC50 was 277 µM.

In the case of `OC(c1cc(C(F)(F)F)nc2c(C(F)(F)F)cccc12)C1CCCCN1` (stereo not shown) [MQ, mefloquine], the “inhibition of QR2 activity” value on QR2 [4] is “less potent inhibitors”. The Ki on QR2 [4] (setting [6]) is 17 ± 4 µM. Further, on QR1, the “effect on QR1 activity” value was “weakly inhibited”. Further, at QR1 (setting [7]), the IC50 was determined as 616 ± 60 µM. Also, in data set [2], the “proteins eluted from ATP-Sepharose (ALDH1 55 kDa, QR2 26 kDa)” value was “selectively eluted proteins of 55 and 26 kDa”; the “proteins eluted from ATP affinity array” value is recorded as “selectively eluted two proteins”.

At QR2 [1], `COc1cc(NC(C)CCCN)c2ncccc2c1` (stereo not shown) [PQ, primaquine] showed a Kd of 9.3 µM. On QR2 [4], the Ki turned out to be 1.04 ± 0.38 µM and the “inhibition of QR2 activity” value was “potent inhibitors”. Moreover, at QR1, half-maximal inhibition (IC50) required 124 ± 10 µM and the “effect on QR1 activity” value is “weakly inhibited”. Further, in data set [2], the “proteins eluted from ATP-Sepharose (ALDH1 55 kDa, QR2 26 kDa)” value was “selectively eluted proteins of 55 and 26 kDa”; the “proteins eluted from ATP affinity array” value was “selectively eluted two proteins”.

Take `C=C[C@H]1C[N@@]2CC[C@H]1C[C@H]2[C@H](O)c1ccnc2ccc(OC)cc12` [Q, quinine]: the “inhibition of QR2 activity” value at QR2 [4] is reported as “less potent inhibitors”. In addition, on QR2 [4] (setting [6]), the Ki stood at 252 ± 50 µM. In addition, the IC50 on QR1 (setting [7]) is 9.6 ± 0.8 µM.

Consider `CCN(CC)CCCC(C)Nc1c2ccc(Cl)cc2nc2ccc(OC)cc12` (stereo not shown) [QC, Quinacrine], for which, at QR2 [4], the Ki was determined as 0.51 ± 0.11 µM and the “inhibition of QR2 activity” value is reported as “potent inhibitors”. Also, at QR1, the “effect on QR1 activity” value is “not affected”. In addition, the 50% inhibitory concentration (IC50) at QR1 (setting [7]) was more than 1000 µM.

In the case of `O=c1cc(-c2ccccc2)oc2cc(O)cc(O)c12` [chrysin], in data set [3] (Plasmodium falciparum), the IC50 came to 53.8 µM.

On to `Nc1ccc(S(=O)(=O)c2ccc(N)cc2)cc1` [dapsone], for which the “elution of hQR2, hALDH1 or any other protein from ATP affinity array” value in data set [2] (infected or non infected red cell extract) was “did not elute”.

In data set [3] (Plasmodium falciparum), `O=c1c(O)c(-c2ccc(O)c(O)c2)oc2cc(O)cc(O)c12` [quercetin] returned an IC50 of 81.8 µM.

B1: hQR2 (Homo sapiens) (protein)
chain: MAGKKVLIVYAHQEPKSFNGSLKNVAVDELSRQGCTVTVSDLYAMNLEPRATDKDITGTLSNPEVFNYGVETHEAYKQRSLASDITDEQKKVREADLVIFQFPLYWFSVPAILKGWMDRVLCQGFAFDIPGFYDSGLLQGKLALLSVTTGGTAEMYTKTGVNGDSRYFLWPLQHGTLHFCGFKVLAPQISFAPEIASEEERKGMVAAWSQRLQTIWKEEPIPCTAHWHFGQ
notes: Pure hALDH was eluted with 5 mM NADH and pure hQR2 with 5 mM NMeN; tissue Valley Biomedical (blood); host or cells: human red blood cells
As a reminder, the Km is the concentration of substrate that gives half-maximal velocity. As for B1, the Michaelis-Menten constant (Km) in data set [5] was found to be 14 µM.

These data come from patent US20030143645A1, “Quinone reductase 2 and aldehyde dehydrogenase as therapeutic targets” (priority 2001, published 2003).
